The values that follow come from patent US8722658B2, “Azetidinyl diamides as monoacylglycerol lipase inhibitors” (Janssen Pharmaceutica, NV, priority 2009, dated 2014).

One assay addresses T1, mutant MGL (Homo sapiens, UniProt Q99685, L169S/L176S).
T1 sequence (Q99685 1-303 L169S/L176S): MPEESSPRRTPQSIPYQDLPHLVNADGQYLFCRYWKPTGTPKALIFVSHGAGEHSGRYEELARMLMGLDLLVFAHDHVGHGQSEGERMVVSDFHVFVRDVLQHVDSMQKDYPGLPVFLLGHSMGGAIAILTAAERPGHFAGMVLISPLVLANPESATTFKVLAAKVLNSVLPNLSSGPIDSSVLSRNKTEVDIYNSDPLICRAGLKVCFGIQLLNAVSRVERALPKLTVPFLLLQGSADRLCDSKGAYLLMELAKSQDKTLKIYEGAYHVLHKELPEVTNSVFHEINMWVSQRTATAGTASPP
As to the kind of experiment: MGL ThermoFluor Assay-Mutant. The settings on record: read-out: MGL mutant ThermoFluor qKd (using qNMR conc.), compound concentration measured by qNMR.

The subject of assay [1] is rat, CFA-induced thermal hypersensitivity. As to the kind of experiment: CFA-Induced Paw Radiant Heat Hypersensitivity. The note with it: 30 mg/kg p.o., HPβCD, group mean values, last time point 180 or 300 min. Type of assay: in vivo. The protocol:
Each rat was placed in a test chamber on a warm glass surface and allowed to acclimate for approximately 10 min. A radiant thermal stimulus (beam of light) was then focused through the glass onto the plantar surface of each hind paw in turn. The thermal stimulus was automatically shut off by a photoelectric relay when the paw was moved or when the cut-off time was reached (20 sec for radiant heat at ˜5 amps). An initial (baseline) response latency to the thermal stimulus was recorded for each animal prior to the injection of complete Freund's adjuvant (CFA). 24 h following intraplantar CFA injection, the response latency of the animal to the thermal stimulus was then re-evaluated and compared to the animal's baseline response time. […] Post-compound treatment withdrawal latencies were assessed at fixed time intervals, typically 30, 60, 120, 180, and 300 min.
The percent reversal (% R) of hypersensitivity was calculated in one of two different ways: 1) using group mean values or 2) using individual animal values. […]
For all compounds, the % R of hypersensitivity was calculated using the mean value for groups of animals at each time point according to the following formula: % reversal=[(group treatment response−group CFA response)/(group baseline response−group CFA response)]×100 Results are given for the maximum % reversal observed for each compound at any time point tested. […]

Protocol for mutant MGL: The ThermoFluor (TF) assay is a 384-well plate-based binding assay that measures thermal stability of proteins^1,2. […] TF dye used in all experiments was 1,8-ANS (Invitrogen: A-47). Final TF assay conditions used for MGL studies were 0.07 mg/ml of mutant MGL, 100 μM ANS, 200 mM NaCl, 0.001% Tween-20 in 50 mM PIPES (pH=7.0).
Screening compound plates contained 100% DMSO compound solutions at a single concentration. […] Columns 12 and 24 were used as DMSO reference and contained no compound. […] Following compound dispension, protein and dye solutions were added to achieve the final assay volume of 3 μL.
Bar-coded assay plates were robotically loaded onto a thermostatically controlled PCR-type thermal block and then heated from 40 to 90° C. degrees at a ramp-rate of 1° C./min for all experiments. Fluorescence was measured by continuous illumination with UV light (Hamamatsu LC6), supplied via fiber optics and filtered through a band-pass filter (380-400 nm; >6 OD cutoff). Fluorescence emission of the entire 384-well plate was detected by measuring light intensity using a CCD camera (Sensys, Roper Scientific) filtered to detect 500±25 nm, resulting in simultaneous and independent readings of all 384 wells. […]

Consider `Cc1nc(C(=O)N2CCN(C3CN(C(=O)c4ccc(-c5cccc(C(F)(F)F)c5)cc4)C3)CC2)cs1` [Cpd 1217, 1-[(2-Methyl-l,3-thiazol-4-yl)carbonyl]-4-(1-{[3′-(trifluoromethyl)biphenyl-4-yl]carbonyl}azetidin-3-yl)piperazine], for which, at mutant MGL, the Kd was found to be 104 nM.

Take `O=C(c1ccc(-c2cccc(C(F)(F)F)c2)c(Cl)c1)N1CC(N2CCN(C(=O)c3cscn3)CC2)C1` [Cpd 1102]: in assay [1], the “Method 1: peak % reversal” value was found to be 38%.
